Key:
[1] = tested on: streptozotocin-induced diabetic rats; test: liver and renal serum biomarkers; format: in vivo, Wistar rats; conditions: 0.5 mg/kg, 28th day
Description: (§1) Non-insulin-dependent diabetes mellitus was induced in fasted rats weighing 150–230 gm using a single dose of streptozotocin (STZ) at a dose of 60 mg/kg intraperitoneally after 15 min of the administration of nicotinamide at a 120 mg/kg dose i.p. Nicotinamide was prepared in normal saline while in citrate buffer (pH 4.5), STZ was prepared. After the induction of diabetes, the increase in the plasma glucose level was measured at 72 h and then measured on the 7th day to confirm hyperglycemia. For the diagnosis of diabetes, the threshold value of the fasting plasma glucose level was considered to be more than 126 mg/dl. For the study, only the animals with permanent NIIDM were utilized.
(§2) The animals were classified into 5 groups with 6 animals in each group (n = 6). Group I comprised of normal control rats which were daily administered drinking water only; group II served as diabetic control rats (disease group); group III served as the positive control and were administered 0.5 mg/kg of the standard drug glibenclamide; and group IV and V served as the test group rats and were administered the test compound 10d at 10 mg/kg and 20 mg/kg, respectively, for twenty-eight days. The fasting glucose concentration was measured on the 0, 7th, 14th, and 28th day of the administration of the extract. During the experimental tenure, the weights of the rats were determined daily and the mean change was recorded.
(§3) The animals were euthanized (sacrificed) via cervical dislocation on the 28th day to observe the biochemical parameters. The parameters studied were triglyceride (TGL), cholesterol, low-density lipoprotein, and high-density lipoprotein (LDL and HDL). The Minias Globe Diagnostic kits were used for cholesterol and TGL. Semi-autoanalyzers were used for the analysis. The serum samples from the rats were also checked for alanine aminotransferase (ALT), aspartate aminotransferase (AST), lactate dehydrogenase (LDH), serum alkaline phosphatase (ALP), and creatinine and urea levels utilizing commercially available kits of Crest Biosystems. The statistical analysis was also performed as per the previous procedure.

[2] = tested on: streptozotocin-induced diabetic rats; test: in vivo antidiabetic activity, fasting plasma glucose level; parameters: species or system Wistar rats; conditions: STZ-induced diabetic rats, 0.5 mg/kg, 28th day
Description: (§4) The antidiabetic activity of the synthesized compound 10d was evaluated using a streptozotocin-induced diabetic rats model.
(§5) Male Wistar rats weighing 150 to 230 gm were used for the study which were housed in polyacrylic cages (no more than six animals per cage) with dimensions of 38 × 23 × 10 cm and maintained under standard laboratory conditions with a dark/light cycle of 14 h of dark and 10 h of light at a temperature of 25 °C. The animals were provided with a standard diet (dry pellet) and water ad libitum. Before the start of the experimental procedures, the rats were acclimatized to laboratory conditions for 10 days. All the experiments were approved and performed as per the guidelines of the Departmental Research Ethics Committee under letter No. DREC/050 [49].
as §1
The animals were classified into 5 groups with 6 animals in each group (n = 6). […] The fasting glucose concentration was measured on the 0, 7th, 14th, and 28th day of the administration of the extract. During the experimental tenure, the weights of the rats were determined daily and the mean change was recorded.

[3] = tested on: streptozotocin-induced diabetic rats; test: effect on serum lipid profile of diabetic animals; format: in vivo, Wistar rats; conditions: compared to diabetic control group
Description: as §4, §5, §1, §2, §3

[4] = tested on: streptozotocin-induced diabetic rats; test: effect on body weight; format: in vivo, Wistar rats; conditions: glibenclamide group, 0.5 mg/kg
Description: as §4, §5, §1, §2

Work on `COc1ccc(Cl)cc1C(=O)NCCc1ccc(S(=O)(=O)NC(=O)NC2CCCCC2)cc1` [Glibenclamide, glibenclamide, reference compound] yielded an ALP [1] of 124.42 ± 2.35 U/L, an ALT [1] of 76.23 ± 2.13 U/L and an AST [1] of 80.36 ± 2.12 U/L. For the same molecule, the Creatinine [1] was 0.44 ± 0.04 ^ns mg/dl, the LDH [1] was 826.21 ± 5.60 U/L and the Urea [1] was 42.45 ± 2.21 mg/dL. The blood glucose level [2] was 72.44 ± 3.58 mg/dL, the HDL level [3] was “greater than before” and the LDL in serum [3] was “significant decline”. The “total cholesterol level in serum” value [3] was “significant decline”, the triglyceride in serum [3] was “significant decline” and the “Change in Body Weight, After Induction” value [4] was 160.52 ± 2.23 gm. For the same molecule, the “Change in Body Weight, Before Induction” value [4] was 180.66 ± 1.67 ^ns gm and the “Change in Body Weight, After Treatment” value ([4]; 28 days) was 176.90 ± 4.45 gm.
